# Measurements reported in paper PMC8957246, “Synthesis and diverse biological activity profile of triethylammonium isatin-3-hydrazones” (ADMET & DMPK, 2022).
# Read-outs that look alike come from different tables or passages of the source.
# Legend:
# Type in all cases: cell-based
# [1] = tested on: Phytophthora cactorum VKM F-985; assay: Fungicidal activity, radial growth inhibition, P. cactorum; settings: for EC50: Phytophthora cactorum, 168 h, day 7, EC50 = 50C/I, read-out: EC50, μg/mL at day 7
# Excerpt: (§1) Plant pathogenic bacterial strains Micrococcus luteus B-109, Pectobacterium atrosepticum 1043, Pectobacterium carotovorum subsp. carotovorum MI, Pseudomonas fluorescens EL-2.1, and Xanthomonas campestris B-610 and fungal strain Fusarium oxysporum IBPPM 543 were obtained from the specialized scientific culture collection of IBPPM RAS (WFCC no. 975, WDCM no. 1021) (CM IBPPM). Pathogenic fungus Phytophthora cactorum VKM F-985 provided by the All-Russian Collection of Microorganisms (VKM) and deposited at A.E. Favorsky Irkutsk Institute of Chemistry, SB RAS, was also used as test organism. Bacteria M. luteus, P. carotovorum subsp. carotovorum, P. atrosepticum, and Ps. fluorescens were grown in meat-peptone medium (BP), and X. campestris was grown in the medium with glucose, yeast extract, and calcium carbonate (GYCa). Solid media contained Bacto agar (18 g/L); pH was adjusted to 7.2-7.4. All bacterial cultures were grown at 28°C. The mycelial cultures of F. oxysporum and P. cactorum were grown on a glucose-peptone-yeast (GPY) nutrient medium at 27 °C. For inoculum preparation, both fungal strains were initially grown on the agar GPY in Petri dishes and then transferred into the seed medium by punching out 5 mm of the agar plate culture with a self-designed cutter.
# For the fungicidal activity analysis, radial growth (colony diameters) of the fungi on a solid medium in the absence and in the presence of the compounds 3a,c-g solutions at various concentrations were compared. The method consisted of the following: sterile, melted and then cooled to about 60°C GPY agar medium (20.0 ml) was mixed with the precisely measured volumes of the solutions under question, and poured into a sterile Petri dish (90 mm i.d.). After solidification of GPY agar, the media were inoculated by the fungus using 10-day-old cultures of F. oxysporum or P. cactorum. The inoculation was done by transferring a 5-mm (i.d.) GPY-agar block covered with mycelium to the center of the Petri dish followed by incubation in a thermostat at 27°C. The fungicidal effect was scored by the size of mycelium colony on a Petri dish compared to the control without fungicidal admixtures to GPY agar. Each treatment was performed in at least four replicates in two independent experiments. The observation period ended when the control Petri dish was filled with mycelium (usually after 12 days). The inhibition of the phytopathogen colony growth by the compounds 3a,c-g or fludioxonil solutions was calculated as a percentage by which the mycelium radial propagation was decreased compared to the unaffected control, the latter was taken as 100 % of growth (or zero percent of inhibition). The EC50 value was calculated as the compound concentration at which the radial growth of the fungus colony was decreased by 50 % relative to the non-fungicidal control, according to the formula EC50 = 50C/I based on the approach developed e.g., in [34, 35].
# (§2) The solutions of tested compounds were prepared with a concentration of 2 mmol/l (stock solution). For comparison, test compounds were also commonly applied disinfecting agents and antibiotics.
# [2] = tested on: Xanthomonas campestris B-610; assay: Bactericidal activity, agar diffusion, X. campestris; settings: Xanthomonas campestris, B610, 2 mM/L
# Excerpt: as §1
# (§3) Antibacterial and antifungal activities of the compounds were explored using the agar diffusion method and the technique of a phytopathogen radial growth inhibition. Method of diffusion in agar (measuring the diameter of growth inhibition zones) was used for determining the bactericidal activity. The 6-mm wells were made in ager medium (GYCa for Xanthomonas campestris or BP for other bacteria). Bacterial suspensions were distributed over the agar surface, and the tested compound's solution (150 μl) was added to each well. The width of growth inhibition zones around the wells was determined after incubation for 36-40 h.
# as §2
# [3] = tested on: Enterococcus faecalis ATCC 29212; assay: Antimicrobial activity, serial dilution (MIC/MBC), Ef; settings: ATCC29212
# [4] = tested on: Pseudomonas fluorescens EL-2.1; assay: Bactericidal activity, agar diffusion, Ps. fluorescens; settings: Pseudomonas fluorescens, EL2.1, 2 mM/L
# Excerpt: as §1, §3, §2
# [5] = 150 μl per well, 36-40 h, read-out: width of the inhibition zone
# [6] = read-out: Inhibition zone width (mm), not less
compound,measurement,setting,value
"CC[N+](CC)(CC)CC(=O)N/N=C1\C(=O)N(Cc2cc(C(C)(C)C)c(O)c(C(C)(C)C)c2)c2cccc(Br)c21 [Compound 3e, 2-(2-(1-(3,5-Di-tert-butyl-4-hydroxybenzyl)-4-bromo-2-oxoindolin-3-ylidene)hydrazinyl)-N,N,N-triethyl-2-oxoethanammonium bromide]","Inhibition value, I (%)","[1]; C 1.36 μg/mL, age of the fungus 3 days",8%
same,"Inhibition value, I (%)","[1]; C 1.36 μg/mL, age of the fungus 5 days",14%
same,"Inhibition value, I (%)","[1]; C 1.36 μg/mL, age of the fungus 7 days",22%
same,"Inhibition value, I (%)","[1]; C 1.36 μg/mL, age of the fungus 9 days",10%
same,"Inhibition value, I (%)","[1]; C 1.36 μg/mL, age of the fungus 12 days",3%
same,"Inhibition value, I (%)","[1]; C 3.41 μg/mL, age of the fungus 3 days",13%
same,"Inhibition value, I (%)","[1]; C 3.41 μg/mL, age of the fungus 5 days",21%
same,"Inhibition value, I (%)","[1]; C 3.41 μg/mL, age of the fungus 7 days",34%
same,"Inhibition value, I (%)","[1]; C 3.41 μg/mL, age of the fungus 9 days",12%
same,"Inhibition value, I (%)","[1]; C 3.41 μg/mL, age of the fungus 12 days",5%
same,"Inhibition value, I (%)","[1]; C 6.81 μg/mL, age of the fungus 3 days",17%
same,"Inhibition value, I (%)","[1]; C 6.81 μg/mL, age of the fungus 5 days",33%
same,"Inhibition value, I (%)","[1]; C 6.81 μg/mL, age of the fungus 7 days",38%
same,"Inhibition value, I (%)","[1]; C 6.81 μg/mL, age of the fungus 9 days",16%
same,"Inhibition value, I (%)","[1]; C 6.81 μg/mL, age of the fungus 12 days",7%
same,"Inhibition value, I (%)","[1]; C 10.22 μg/mL, age of the fungus 3 days",39%
same,"Inhibition value, I (%)","[1]; C 10.22 μg/mL, age of the fungus 5 days",40%
same,"Inhibition value, I (%)","[1]; C 10.22 μg/mL, age of the fungus 7 days",53%
same,"Inhibition value, I (%)","[1]; C 10.22 μg/mL, age of the fungus 9 days",28%
same,"Inhibition value, I (%)","[1]; C 10.22 μg/mL, age of the fungus 12 days",18%
same,"Inhibition value, I (%)","[1]; C 13.62 μg/mL, age of the fungus 3 days",45%
same,"Inhibition value, I (%)","[1]; C 13.62 μg/mL, age of the fungus 5 days",62%
same,"Inhibition value, I (%)","[1]; C 13.62 μg/mL, age of the fungus 7 days",72%
same,"Inhibition value, I (%)","[1]; C 13.62 μg/mL, age of the fungus 9 days",70%
same,"Inhibition value, I (%)","[1]; C 13.62 μg/mL, age of the fungus 12 days",66%
same,EC50,[1],3.1 µg/mL
same,zone of inhibition at 2000 µM,[2]; [5],11 mm
same,zone of inhibition at 2000 µM,[2]; [6],≥ 11 mm
same,MBC,[3],> 500 µM
same,MIC,[3],> 500 µM
same,zone of inhibition at 2000 µM,[4]; [5],9 mm
same,zone of inhibition at 2000 µM,[4]; [6],≥ 9 mm
"CC[N+](CC)(CC)CC(=O)N/N=C1\C(=O)N(Cc2cc(C(C)(C)C)c(O)c(C(C)(C)C)c2)c2ccc([N+](=O)[O-])cc21 [Compound 3f, 2-(2-(1-(3,5-Di-tert-butyl-4-hydroxybenzyl)-5-nitro-2-oxoindolin-3-ylidene)hydrazinyl)-N,N,N-triethyl-2-oxoethanammonium bromide]","Inhibition value, I (%)","[1]; C 1.29 μg/mL, age of the fungus 3 days",17%
same,"Inhibition value, I (%)","[1]; C 1.29 μg/mL, age of the fungus 5 days",11%
same,"Inhibition value, I (%)","[1]; C 1.29 μg/mL, age of the fungus 7 days",2%
same,"Inhibition value, I (%)","[1]; C 1.29 μg/mL, age of the fungus 9 days",0%
same,"Inhibition value, I (%)","[1]; C 1.29 μg/mL, age of the fungus 12 days",0%
same,"Inhibition value, I (%)","[1]; C 3.24 μg/mL, age of the fungus 3 days",33%
same,"Inhibition value, I (%)","[1]; C 3.24 μg/mL, age of the fungus 5 days",19%
same,"Inhibition value, I (%)","[1]; C 3.24 μg/mL, age of the fungus 7 days",18%
same,"Inhibition value, I (%)","[1]; C 3.24 μg/mL, age of the fungus 9 days",1%
same,"Inhibition value, I (%)","[1]; C 3.24 μg/mL, age of the fungus 12 days",0%
same,"Inhibition value, I (%)","[1]; C 6.47 μg/mL, age of the fungus 3 days",35%
same,"Inhibition value, I (%)","[1]; C 6.47 μg/mL, age of the fungus 5 days",23%
same,"Inhibition value, I (%)","[1]; C 6.47 μg/mL, age of the fungus 7 days",20%
same,"Inhibition value, I (%)","[1]; C 6.47 μg/mL, age of the fungus 9 days",8%
same,"Inhibition value, I (%)","[1]; C 6.47 μg/mL, age of the fungus 12 days",1%
same,"Inhibition value, I (%)","[1]; C 9.71 μg/mL, age of the fungus 3 days",41%
same,"Inhibition value, I (%)","[1]; C 9.71 μg/mL, age of the fungus 5 days",36%
same,"Inhibition value, I (%)","[1]; C 9.71 μg/mL, age of the fungus 7 days",32%
same,"Inhibition value, I (%)","[1]; C 9.71 μg/mL, age of the fungus 9 days",20%
same,"Inhibition value, I (%)","[1]; C 9.71 μg/mL, age of the fungus 12 days",16%
same,"Inhibition value, I (%)","[1]; C 12.94 μg/mL, age of the fungus 3 days",59%
same,"Inhibition value, I (%)","[1]; C 12.94 μg/mL, age of the fungus 5 days",55%
same,"Inhibition value, I (%)","[1]; C 12.94 μg/mL, age of the fungus 7 days",53%
same,"Inhibition value, I (%)","[1]; C 12.94 μg/mL, age of the fungus 9 days",48%
same,"Inhibition value, I (%)","[1]; C 12.94 μg/mL, age of the fungus 12 days",30%
same,EC50,[1],8.99 µg/mL
same,zone of inhibition at 2000 µM,[2]; [5],7.5 mm
same,MBC,[3],> 500 µM
same,MIC,[3],> 500 µM
same,zone of inhibition at 2000 µM,[4]; [5],10 mm
same,zone of inhibition at 2000 µM,[4]; [6],≥ 10 mm
"CC[N+](CC)(CC)CC(=O)N/N=C1\C(=O)N(Cc2cc(C(C)(C)C)c(O)c(C(C)(C)C)c2)c2c(Br)cc(Cl)cc21 [Compound 3g, 2-(2-(1-(3,5-Di-tert-butyl-4-hydroxybenzyl)-5-chloro-7-bromo-2-oxoindolin-3-ylidene)hydrazinyl)-N,N,N-triethyl-2-oxoethanammonium bromide]","Inhibition value, I (%)","[1]; C 1.43 μg/mL, age of the fungus 3 days",30%
same,"Inhibition value, I (%)","[1]; C 1.43 μg/mL, age of the fungus 5 days",29%
same,"Inhibition value, I (%)","[1]; C 1.43 μg/mL, age of the fungus 7 days",15%
same,"Inhibition value, I (%)","[1]; C 1.43 μg/mL, age of the fungus 9 days",1%
same,"Inhibition value, I (%)","[1]; C 1.43 μg/mL, age of the fungus 12 days",0%
same,"Inhibition value, I (%)","[1]; C 3.58 μg/mL, age of the fungus 3 days",38%
same,"Inhibition value, I (%)","[1]; C 3.58 μg/mL, age of the fungus 5 days",29%
same,"Inhibition value, I (%)","[1]; C 3.58 μg/mL, age of the fungus 7 days",22%
same,"Inhibition value, I (%)","[1]; C 3.58 μg/mL, age of the fungus 9 days",5%
same,"Inhibition value, I (%)","[1]; C 3.58 μg/mL, age of the fungus 12 days",0%
same,"Inhibition value, I (%)","[1]; C 7.15 μg/mL, age of the fungus 3 days",40%
same,"Inhibition value, I (%)","[1]; C 7.15 μg/mL, age of the fungus 5 days",33%
same,"Inhibition value, I (%)","[1]; C 7.15 μg/mL, age of the fungus 7 days",26%
same,"Inhibition value, I (%)","[1]; C 7.15 μg/mL, age of the fungus 9 days",14%
same,"Inhibition value, I (%)","[1]; C 7.15 μg/mL, age of the fungus 12 days",11%
same,"Inhibition value, I (%)","[1]; C 10.73 μg/mL, age of the fungus 3 days",48%
same,"Inhibition value, I (%)","[1]; C 10.73 μg/mL, age of the fungus 5 days",43%
same,"Inhibition value, I (%)","[1]; C 10.73 μg/mL, age of the fungus 7 days",41%
same,"Inhibition value, I (%)","[1]; C 10.73 μg/mL, age of the fungus 9 days",31%
same,"Inhibition value, I (%)","[1]; C 10.73 μg/mL, age of the fungus 12 days",26%
same,"Inhibition value, I (%)","[1]; C 14.30 μg/mL, age of the fungus 3 days",51%
same,"Inhibition value, I (%)","[1]; C 14.30 μg/mL, age of the fungus 5 days",48%
same,"Inhibition value, I (%)","[1]; C 14.30 μg/mL, age of the fungus 7 days",46%
same,"Inhibition value, I (%)","[1]; C 14.30 μg/mL, age of the fungus 9 days",41%
same,"Inhibition value, I (%)","[1]; C 14.30 μg/mL, age of the fungus 12 days",28%
same,EC50,[1],4.77 µg/mL
same,zone of inhibition at 2000 µM,[2]; [5],8 mm
same,zone of inhibition at 2000 µM,[2]; [6],≥ 8 mm
same,MBC,[3],> 500 µM
same,MIC,[3],> 500 µM
same,zone of inhibition at 2000 µM,[4]; [5],8.5 mm
same,zone of inhibition at 2000 µM,[4]; [6],≥ 8 mm
